From ChEMBL document CHEMBL1201862, “PubChem BioAssay data set” (2004)
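How tested: cells in 96-well plates exposed to compound for 48 hours at five concentrations. GI50 = concentration required for 50% inhibition of growth.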 Calls of active or inactive are those of the source. Rule as the data show it: active = GI50 up to about 1.1 µM and inactive = higher.

How the values were obtained:
Test in all cases: NCI-60 cell line screen, 48 h
[1] = tested on: NCI/ADR-RES
[2] = tested on: UACC-62
[3] = tested on: Hs-578T
[4] = tested on: OVCAR-5
[5] = tested on: HL-60
[6] = tested on: MDA-MB-435
[7] = tested on: PC-3
[8] = tested on: MDA-N
[9] = tested on: MDA-MB-231
[10] = tested on: DU-145
[11] = tested on: T47D
[12] = tested on: Malme-3M
[13] = tested on: KM12
[14] = tested on: SN12C
[15] = tested on: BT-549
[16] = tested on: MCF7
[17] = tested on: 786-0
[18] = tested on: SF-268
[19] = tested on: TK-10

SMILES | GI50 [1] | GI50 [2] | GI50 [3] | GI50 [4] | GI50 [5] | GI50 [6] | GI50 [7] | GI50 [8] | GI50 [9] | GI50 [10] | GI50 [11] | GI50 [12] | GI50 [13] | GI50 [14] | GI50 [15] | GI50 [16] | GI50 [17] | GI50 [18] | GI50 [19]
O=C1C[C@H](c2ccccc2)C2(C(=O)c3ccccc3C2=O)[C@H](c2ccccc2)C1 | > 100 µM (inactive) | 79.1 µM (inactive) | 29.8 µM (inactive) | > 100 µM (inactive) | > 100 µM (inactive) | > 100 µM (inactive) | > 100 µM (inactive) | 85.7 µM (inactive) | 9.42 µM (inactive) | 75 µM (inactive) | > 100 µM (inactive) | > 100 µM (inactive) | > 100 µM (inactive) | > 100 µM (inactive) | 86.9 µM (inactive) | – | – | – | –
Cc1[nH]c(-c2ccccc2)c(O)c1C(=O)OC1CC(C)CCC1C(C)C (configuration not stated) | 14.7 µM (inactive) | 16.5 µM (inactive) | 18.3 µM (inactive) | 14.2 µM (inactive) | 16.4 µM (inactive) | 14.8 µM (inactive) | 13.8 µM (inactive) | 16.3 µM (inactive) | 15.5 µM (inactive) | 15.8 µM (inactive) | 13.7 µM (inactive) | 18.7 µM (inactive) | 13.4 µM (inactive) | 15.7 µM (inactive) | 18.4 µM (inactive) | 3.91 µM (inactive) | 15.3 µM (inactive) | 15.3 µM (inactive) | –
O=C1Nc2ccc(Br)cc2/C1=N/c1ccc(Cl)cc1 | 12.6 µM (inactive) | 0.237 µM (active) | 33.6 µM (inactive) | 18.2 µM (inactive) | 5.48 µM (inactive) | 2.87 µM (inactive) | 25.3 µM (inactive) | 6.98 µM (inactive) | 15.5 µM (inactive) | 47.2 µM (inactive) | 16.9 µM (inactive) | 24.8 µM (inactive) | 4.55 µM (inactive) | 13 µM (inactive) | – | 10.2 µM (inactive) | 26.3 µM (inactive) | 14.6 µM (inactive) | 21.8 µM (inactive)
C[C@@H](NC(=O)[C@@H]1C[C@]1(C)COC(=O)c1cc([N+](=O)[O-])cc([N+](=O)[O-])c1)c1cccc2ccccc12 | > 100 µM (inactive) | 50 µM (inactive) | 20 µM (inactive) | > 100 µM (inactive) | – | > 100 µM (inactive) | > 100 µM (inactive) | > 100 µM (inactive) | > 100 µM (inactive) | > 100 µM (inactive) | 65.3 µM (inactive) | 6.87 µM (inactive) | > 100 µM (inactive) | > 100 µM (inactive) | > 100 µM (inactive) | > 100 µM (inactive) | > 100 µM (inactive) | > 100 µM (inactive) | > 100 µM (inactive)
COc1cc2c(cc1OCCCC(=O)Nc1cc(C(=O)Nc3cc(C(=O)Nc4cc(C(=O)NCCCN(C)C)n(C)n4)n(C)n3)n(C)n1)N=CC1CCCN1C2=O (configuration not stated) | 31.8 µM (inactive) | 20.3 µM (inactive) | 39.5 µM (inactive) | 32.6 µM (inactive) | 6.14 µM (inactive) | 20.1 µM (inactive) | 31.3 µM (inactive) | – | 24.2 µM (inactive) | 35.4 µM (inactive) | 56 µM (inactive) | 10.8 µM (inactive) | 21.1 µM (inactive) | 21.1 µM (inactive) | 12.4 µM (inactive) | 21.1 µM (inactive) | 4.81 µM (inactive) | 31.2 µM (inactive) | 20.7 µM (inactive)
COC(C[C@H]1CCCC[C@]1(O)/C(=C\CO[Si](C(C)C)(C(C)C)C(C)C)Sc1ccccc1)OC | 87.3 µM (inactive) | > 100 µM (inactive) | 29.4 µM (inactive) | 38.4 µM (inactive) | 38.2 µM (inactive) | 33 µM (inactive) | 35.6 µM (inactive) | 45.2 µM (inactive) | 18.9 µM (inactive) | 40.1 µM (inactive) | 12.6 µM (inactive) | 22.5 µM (inactive) | 41.3 µM (inactive) | 39.5 µM (inactive) | – | > 100 µM (inactive) | 39.4 µM (inactive) | 28.3 µM (inactive) | > 100 µM (inactive)
Oc1cc(-c2ccc(Cl)cc2)nc2ncccc12 | 36 µM (inactive) | 28.9 µM (inactive) | 56.2 µM (inactive) | > 100 µM (inactive) | – | – | – | – | 64.6 µM (inactive) | > 100 µM (inactive) | 61.7 µM (inactive) | 28.6 µM (inactive) | 14.9 µM (inactive) | 75.9 µM (inactive) | > 100 µM (inactive) | 16.6 µM (inactive) | – | 53.2 µM (inactive) | 94.4 µM (inactive)
O=C(O)c1nc(-c2ccccn2)c(-c2ccccn2)nc1C(=O)O | 2.75 µM (inactive) | 2.1 µM (inactive) | 19.1 µM (inactive) | 3.01 µM (inactive) | 2.25 µM (inactive) | 3.62 µM (inactive) | 4.47 µM (inactive) | 2.2 µM (inactive) | 9.82 µM (inactive) | 2.47 µM (inactive) | 5.19 µM (inactive) | 1.66 µM (inactive) | 2.75 µM (inactive) | 3.27 µM (inactive) | 4.01 µM (inactive) | – | 2.61 µM (inactive) | 3.31 µM (inactive) | 3.48 µM (inactive)
